This passage reports inhibition, EC50 and IC50 results from ChEMBL document CHEMBL2434880, “Synthesis and assessment of catechol diether compounds as inhibitors of trypanosomal phosphodiesterase B1 (TbrPDEB1)” (Bioorg Med Chem Lett, 2013).

What is called inhibition is how much of the control response was suppressed. Usually EC50 stands for the midpoint of the concentration-response curve. Usually IC50 stands for the midpoint of a concentration-inhibition curve. Low values mean higher potency, high ones lower potency.

One assay deals with T1, Class 1 phosphodiesterase PDEB1 (Trypanosoma brucei) (UniProt Q8WQX9).
T1 sequence (whole entry): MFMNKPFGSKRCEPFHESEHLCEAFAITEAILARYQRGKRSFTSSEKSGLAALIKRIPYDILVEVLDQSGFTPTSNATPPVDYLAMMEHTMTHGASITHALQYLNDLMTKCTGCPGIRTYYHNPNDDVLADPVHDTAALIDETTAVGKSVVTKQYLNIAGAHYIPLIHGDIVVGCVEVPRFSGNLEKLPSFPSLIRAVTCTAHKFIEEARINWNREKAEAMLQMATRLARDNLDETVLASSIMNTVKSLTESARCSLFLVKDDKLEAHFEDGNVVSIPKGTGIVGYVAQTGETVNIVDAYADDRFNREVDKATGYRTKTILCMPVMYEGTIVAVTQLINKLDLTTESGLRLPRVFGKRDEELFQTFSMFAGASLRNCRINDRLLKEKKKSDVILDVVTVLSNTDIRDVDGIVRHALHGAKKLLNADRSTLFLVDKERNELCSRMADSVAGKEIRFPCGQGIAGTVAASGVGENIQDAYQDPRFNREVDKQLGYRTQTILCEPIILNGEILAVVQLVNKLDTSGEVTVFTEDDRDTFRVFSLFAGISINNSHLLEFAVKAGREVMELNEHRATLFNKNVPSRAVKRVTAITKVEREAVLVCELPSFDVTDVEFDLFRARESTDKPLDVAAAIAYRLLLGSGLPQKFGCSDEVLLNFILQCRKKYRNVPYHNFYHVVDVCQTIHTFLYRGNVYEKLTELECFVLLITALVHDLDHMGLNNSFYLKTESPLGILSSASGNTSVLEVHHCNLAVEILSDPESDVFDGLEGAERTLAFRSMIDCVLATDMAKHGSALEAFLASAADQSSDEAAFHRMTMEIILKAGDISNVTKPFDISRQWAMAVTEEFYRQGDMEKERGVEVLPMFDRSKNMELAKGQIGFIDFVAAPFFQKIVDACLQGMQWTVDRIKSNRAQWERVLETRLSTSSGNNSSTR
The experiment in a line: Inhibition of Trypanosoma brucei recombinant PDEB1 at 10 uM by spectrophotometric analysis relative to control.
In the case of `COc1ccc(-c2ccc(OC)c(OC3CCCC3)c2)cn1`, the inhibition came out at 7.6%.

For the compound `COc1ccc(-c2ccnc(NC3CCCC3)n2)cc1OC1CCCC1`, the inhibition worked out at 12.7%. With `COc1ccc(-c2ccnc(NCc3ccccc3)n2)cc1OCc1ccccc1`, the inhibition came to 18.5%.

In the case of `COc1ccc(-c2ccnc(NC3CCCCC3)n2)cc1OCc1ccccc1`, the inhibition worked out at 23.2%. Take `COc1ccc(-c2ccncc2)cc1OC1CCCC1`: the inhibition is 18.7%. For `COc1ccc(-c2ccnc(NC3CCCC3)n2)cc1OCc1ccccc1`, the inhibition was 21.8%. Still for that read-out and setting: the result for `COc1ccc(-c2ccnc(NCc3ccccc3)n2)cc1OC1CCCC1` reads 32.9%. On the same count and under the same terms, for `COc1ccc(-c2ccnc(N(C)C)c2)cc1OC1CCCC1` the value was 34%.

As for `COc1ccc(-c2ccnc(NC3CCCCCC3)n2)cc1OCc1ccccc1`, the inhibition stood at 22.3%. As to `COc1ccc(-c2ccnc(NC3CCCCCC3)n2)cc1OC1CCCC1`, the inhibition amounted to 20.6%.

For `COc1ccc(-c2cccc3ncccc23)cc1OC1CCCC1`, the inhibition came to 69.1%. As to `COc1ccc(-c2ccnc(NC3CCCCC3)c2)cc1OC1CCCC1`, the inhibition turned out to be 27.1%. The same measure, in the same setting: the result for `COc1ccc(-c2ccnc(NCc3ccccc3)c2)cc1OCc1ccccc1` reads 7.2%.

As to `COc1ccc(-c2ccnc(NC3CCCCC3)c2)cc1OCc1ccccc1`, the inhibition came out at 28.4%. On the same count and under the same terms, for `COc1ccc(-c2ccnc(NC3CCC3)n2)cc1OC1CCCC1` the value was 3.9%; for `COc1ccc(-c2ccnc(N(C)C)n2)cc1OC1CCCC1`, 15.8%; for `COc1ccc(-c2ccnc(N(C)C)c2)cc1OCc1ccccc1`, 48%. With `COc1ccc(-c2ccnc(NC3CCCCC3)n2)cc1OC1CCCC1`, the inhibition came to 29.8%. Same read-out and setting: for `COc1ccc(-c2ccnc(N(C)C)n2)cc1OCc1ccccc1` the value was 14.5%. As to `COc1ccc(-c2ccnc(NC3CCC3)n2)cc1OCc1ccccc1`, the inhibition amounted to 16.1%.

Another assay deals with Trypanosoma brucei brucei. The experiment in a line: Antitrypanosomal activity against Trypanosoma brucei brucei. The format is functional, organism-based.
Take `COc1ccc(C2=NN(C3CCCCCC3)C(=O)[C@H]3CC=CC[C@@H]23)cc1OCCCCOc1ccc(-c2nn[nH]n2)cc1`: the concentration for a half-maximal effect (EC50) was 80 nM. This lies in the double-digit nanomolar range.

A further assay concerns the target T2, Class 1 phosphodiesterase PDEB1 (Trypanosoma brucei, UniProt Q8WQX9).
T2 sequence (Q8WQX9 whole entry): T1 sequence (whole entry)
The experiment in a line: Inhibition of Trypanosoma brucei PDEB1.
As for `COc1ccc(C2=NN(C3CCCC3)C(=O)[C@H]3CC=CC[C@@H]23)cc1OC1CCCC1`, 278 nM corresponded to half-maximal inhibition (IC50). This lies in the sub-micromolar range.

The target in the next assay is Phosphodiesterase 4 (Homo sapiens, UniProt P27815+Q08499+Q07343+Q08493). The experiment in a line: Inhibition of human PDE4. The format is protein assay.
Regarding `COc1ccc(C2=NN(C3CCCC3)C(=O)[C@H]3CC=CC[C@@H]23)cc1OC1CCCC1`, the IC50 worked out at 10 nM.

Compound `COc1ccc(C2=NN(C3CCCCCC3)C(=O)[C@H]3CC=CC[C@@H]23)cc1OCCCCOc1ccc(-c2nn[nH]n2)cc1` came in with a 50% inhibitory concentration (IC50) of 0.6 nM.

Tested on in the next assay: not listed separately
The experiment in a line: Inhibition of Trypanosoma brucei PDEB2.
Regarding `COc1ccc(C2=NN(C3CCCC3)C(=O)[C@H]3CC=CC[C@@H]23)cc1OC1CCCC1`, the half-inhibitory concentration (IC50) amounted to 544 nM. On the same count and under the same terms, for `COc1ccc(C2=NN(C3CCCCCC3)C(=O)[C@H]3CC=CC[C@@H]23)cc1OCCCCOc1ccc(-c2nn[nH]n2)cc1` the value was 6 nM.
